Experimental data taken from US5753673A, “Quinolinecarboxylic acid derivatives” (Taisho Pharmaceutical Co., Ltd., priority 1994, dated 1998).
Where a name gives a salt, the structure may show the parent alone. Read-outs that look alike come from different tables or passages of the source.

What was measured:
[1] = target: T1, 5-HT1A receptor (Rattus norvegicus, UniProt P19327); test: Selectivity for receptors: 5-HT1A receptor, inhibition of [^3 H] 8-OH-DPAT binding to rat cerebral cortex membrane; settings: [^3 H] 8-OH-DPAT 1 nM, rat cerebral cortex membrane; symbol, no activity in 10 μM; read-out: 5-HT1A receptor antagonizing action (IC50)
T1 construct: The rat cerebral cortex was homogenized in 50 mM Tris hydrochloride buffer; from tissue; host or cells: rat cerebral cortex membranes
T1 sequence (P19327 1-422): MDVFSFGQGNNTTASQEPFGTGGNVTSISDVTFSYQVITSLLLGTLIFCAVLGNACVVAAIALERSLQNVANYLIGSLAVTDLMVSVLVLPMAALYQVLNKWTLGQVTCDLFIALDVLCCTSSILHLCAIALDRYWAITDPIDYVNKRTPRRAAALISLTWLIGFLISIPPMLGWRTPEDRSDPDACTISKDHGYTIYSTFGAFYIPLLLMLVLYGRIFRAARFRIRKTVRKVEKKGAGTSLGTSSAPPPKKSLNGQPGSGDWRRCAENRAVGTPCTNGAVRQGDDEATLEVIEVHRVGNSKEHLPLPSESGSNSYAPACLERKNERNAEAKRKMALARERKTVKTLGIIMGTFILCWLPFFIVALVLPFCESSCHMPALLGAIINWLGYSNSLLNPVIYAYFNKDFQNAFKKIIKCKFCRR
Experimental: (§1) The selectivity for receptors of the quinolinecarboxylic acid derivatives of the present invention was examined by the following method.
The affinity to serotonin 1A (5-HT1A) receptor was examined by the method described in […], J. R. et al., Biochem. Pharmacol., 12, 1943-1949 (1986).
The affinity to serotonin 1A (5-HT1A) was examined in terms of inhibition of [^3 H] 8-OH-DPAT (Daiichi Kagaku Yakuhin Co.) binding to rat cerebral cortex membrane. The rat cerebral cortex was homogenized in 50 mM Tris hydrochloride buffer (pH 7.4) followed by centrifugation at 48,000 G.
The pellet was washed once with Tris hydrochloride buffer. Then the pellet was suspended in 50 mM Tris hydrochloride buffer (supplemented with 0.01 mM pargyline and 0.1% ascorbic acid, pH 7.7) and provided for use as the membrane preparation. The membrane specimen was reacted with 1 nM [^3 H] 8-OH-DPAT at 37° C. for 15 minutes. After the reaction, the membrane was caught by a harvester. Non-specific binding was defined as that taken in the presence of 10 μM 5-HT.

[2] = target: T2, 5-HT4 receptor (Cavia porcellus, UniProt O70528); test: Inhibition of 5-HT4 receptor-binding ([^3 H]GR113808 binding in guinea pig ileum)
T2 construct: The longitudinal muscle strip from guinea pig was homogenized; from tissue; host or cells: membranes of guinea pig ileum longitudinal muscle strip
T2 sequence (O70528 whole entry): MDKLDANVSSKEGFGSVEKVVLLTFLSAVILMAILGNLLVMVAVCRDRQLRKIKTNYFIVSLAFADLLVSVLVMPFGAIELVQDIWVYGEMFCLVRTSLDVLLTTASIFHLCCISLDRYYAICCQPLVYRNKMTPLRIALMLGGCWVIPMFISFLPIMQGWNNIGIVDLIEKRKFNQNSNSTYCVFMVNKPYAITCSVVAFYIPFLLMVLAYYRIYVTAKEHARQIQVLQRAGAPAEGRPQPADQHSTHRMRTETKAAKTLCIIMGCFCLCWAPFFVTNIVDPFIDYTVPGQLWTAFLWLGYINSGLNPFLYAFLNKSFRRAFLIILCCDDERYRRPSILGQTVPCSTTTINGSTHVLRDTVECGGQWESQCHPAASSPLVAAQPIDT
Experimental: Effect on inhibition of 5-HT4 receptor-binding
The effect on inhibition of 5-HT4 receptor-binding of the quinolinecarboxylic acid derivatives of the present invention was examined according to the method described in GROSSMAN et al., Br. J. Pharmacol., 109, 618 (1993).
The longitudinal muscle strip from guinea pig was homogenized in 0.32M sucrose with a Teflon-glass homogenizer. After centrifugation at 900 G for 10 minutes, the upper fraction of lipids and precipitates was discarded and the supernatant was centrifuged at 100,000 G (48,000 rpm) for an hour. The pellet was resuspended in 50 mM HEPES buffer. After incubation at 37° C. for 30 minutes, the suspension was centrifuged at 48,000 rpm for 20 minutes. The pellet was suspended in HEPES buffer supplemented with 10^-6 M pargyline and 0.1% ascorbic acid. The suspension was used for the binding assay.
Non-specific binding was defined as that taken in the presence of 3×10^-5 M 5-HT. B/F separation was performed through GF/B filter treated with 0.1% polyethyleneimine, using a cell harvester. Washing was performed once.

[3] = target: T3, serotonin 4 receptor (5-HT4) (Cavia porcellus, UniProt O70528); test: Stimulating activity on serotonin 4 receptor (twitch response in guinea pig ileum); type: cell-based
T3 construct: from tissue; host or cells: longitudinal muscle strips of guinea pig ileum (Harley guinea pigs)
T3 sequence (O70528 whole entry): as above
Experimental: Stimulating activity on serotonin 4 receptor
From Harley guinea pigs weighing 250 to 400 g, a section of ileum 10 to 20 cm proximal to the ileocecal junction was removed. Longitudinal muscle strips obtained from the ileum were used for this assay. The preparations were suspended in Krebs' solution at 32 to 34° C., bubbled continuously with 95% O2 and 5% CO2, and subjected to initial tension of about 0.8 g. Responses were recorded isometrically. Twitch responses were evoked by electrical stimulation (0.2 Hz, 1 msec pulse duration). The preparations were stimulated at supramaximal voltage for 2 to 3 hours, and were then allowed to equilibrate for about 1 hour at submaximal voltage. […] The preparations were left for at least 45 minutes before cumulative addition of each agonist.
The quinolinecarboxylic acid derivatives of the present invention were employed as sample compounds. For comparison, the following compounds were employed. These compounds were diluted by dissolving them in distilled water or in DMSO.
The data obtained was analyzed by RS1 (BBN Software Product Co.).

[4] = target: T4, 5-HT3 receptor (Rattus norvegicus, UniProt P35563); test: Selectivity for receptors: 5-HT3 receptor, inhibition of [^3 H]GR65630 binding to rat cerebral cortex membrane; settings: [^3 H]GR65630 0.2 nM, read-out: 5-HT3 receptor antagonizing action (IC50)
T4 construct: The rat cerebral cortex was homogenized in 50 mM Tris hydrochloride buffer; from tissue; host or cells: rat cerebral cortex membranes
T4 sequence (P35563 24-483): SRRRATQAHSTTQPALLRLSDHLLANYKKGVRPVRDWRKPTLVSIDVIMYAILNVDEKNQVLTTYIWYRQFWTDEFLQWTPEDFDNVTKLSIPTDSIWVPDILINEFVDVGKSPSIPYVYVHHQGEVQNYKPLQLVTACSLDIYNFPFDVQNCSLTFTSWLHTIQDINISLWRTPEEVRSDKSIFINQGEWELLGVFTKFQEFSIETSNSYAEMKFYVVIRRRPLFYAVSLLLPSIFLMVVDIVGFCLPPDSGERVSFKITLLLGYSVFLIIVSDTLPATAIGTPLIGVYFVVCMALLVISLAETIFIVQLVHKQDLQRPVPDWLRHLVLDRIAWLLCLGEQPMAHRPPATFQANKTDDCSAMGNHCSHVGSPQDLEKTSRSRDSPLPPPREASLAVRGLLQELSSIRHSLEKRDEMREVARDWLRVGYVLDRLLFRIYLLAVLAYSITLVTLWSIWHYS
Experimental: as §1
The affinity for serotonin 3 receptor was examined by the method described in […], G. J. et al., Nature (London), 330, 746-748 (1987).
The affinity to serotonin 3 (5-HT3) was examined in terms of inhibition of [^3 H]GR65630 binding (Daiichi Kagaku Yakuhin Co.) binding to rat cerebral cortex membrane. The rat cerebral cortex was homogenized in 50 mM Tris hydrochloride buffer (pH 7.4) followed by centrifugation at 48,000 G. The precipitates were washed once with Tris hydrochloride buffer. Then the precipitates were suspended in 50 mM Tris hydrochloride buffer and provided for use as the membrane preparation. The membrane preparation was reacted with 0.2 nM [^3 H]GR65630 at 37° C. for 30 minutes. After the reaction, the membrane was caught by a harvester. Non-specific binding was defined as the binding taken in the presence of 1 μM zacopride.

[5] = target: T5, Dopamine D2 receptor (Rattus norvegicus, UniProt P61169); test: Selectivity for receptors: dopamine D2 receptor, inhibition of [^3 H] raclopride binding to rat striatal membrane; settings: [^3 H] raclopride 1 nM, symbol, no activity in 10 μM, read-out: Dopamine D2 receptor antagonizing action (IC50)
T5 construct: The rat striatum was homogenized in 50 mM Tris hydrochloride buffer; from tissue; host or cells: rat striatal membranes
T5 sequence (P61169 whole entry): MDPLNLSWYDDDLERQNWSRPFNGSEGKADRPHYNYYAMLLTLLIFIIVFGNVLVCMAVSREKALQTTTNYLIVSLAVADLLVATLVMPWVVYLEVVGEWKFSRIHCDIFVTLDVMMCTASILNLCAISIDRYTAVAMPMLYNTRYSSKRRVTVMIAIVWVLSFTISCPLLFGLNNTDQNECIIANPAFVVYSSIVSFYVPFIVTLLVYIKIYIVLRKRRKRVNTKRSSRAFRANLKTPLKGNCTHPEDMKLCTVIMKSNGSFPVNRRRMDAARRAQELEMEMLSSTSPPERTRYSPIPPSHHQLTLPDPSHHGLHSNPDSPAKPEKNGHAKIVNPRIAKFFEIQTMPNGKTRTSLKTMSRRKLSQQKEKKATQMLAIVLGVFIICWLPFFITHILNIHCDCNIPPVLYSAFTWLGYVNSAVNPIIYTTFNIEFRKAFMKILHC
Experimental: as §1
The affinity to dopamine 2 (D2) receptor was examined according to the method described in MALMBERG, A. et al., Mol Pharmacol., 43, 749-754 (1993).
The affinity for D2 receptor was studied in terms of the inhibition of [^3 H] raclopride (Daiichi Kagaku Yakuhin Co.) binding to rat striatal membrane. The rat striatum was homogenized in 50 mM Tris hydrochloride buffer (pH 7.4) followed by centrifugation at 48,000 G. The pellet was washed once with Tris hydrochloride buffer. Then the pellet was suspended in 50 mM Tris hydrochloride buffer (containing 120 mM NaCl, 5 mM KCl, 2 mM CaCl2, 1 mM MgCl2, pH 7.4) and provided for use as the membrane preparation. The membrane preparation (0.5 mg protein/ml) was reacted with 1 nM [3H] raclopride at 25° C. for 60 minutes. After the reaction, the membrane was caught by a harvester. Non-specific binding was defined as that taken in the presence of 10 μM haloperidol.

## CC(C)n1c(=O)c(C(=O)NC2CC3CCC(C2)N3CCCO)cc2ccccc21 (stereo not drawn) [Compound 5, Endo-N-(8-(3-hydroxypropyl)-8-azabicyclo[3.2.1]oct-3-yl)-1-isopropyl-2-oxo-1,2-dihydro-3-quinolinecarboxamide]
[1]
  IC50: > 10000 nM
[2]
  IC50: 42.2 ± 6.29 nM
[3]
  EC50: 32 nM
[4]
  IC50: 977 nM
[5]
  IC50: > 10000 nM

## COCCN1[C@@H]2CC[C@H]1C[C@@H](NC(=O)c1cc3ccccc3n(C(C)C)c1=O)C2 [Compound 10, endo-N-(8-(2-methoxyethyl)-8-azabicyclo[3.2.1]oct-3-yl)-1-isopropyl-2-oxo-1,2-dihydro-3-quinolinecarboxamide hydrochloride]
[1]
  IC50: > 10000 nM
[2]
  IC50: 78.5 ± 14.6 nM
[3]
  EC50: 15 nM
[4]
  IC50: 811 nM
[5]
  IC50: > 10000 nM

## CC(C)n1c(=O)c(C(=O)N[C@H]2C[C@H]3CC[C@@H](C2)N3CCN2CCOCC2)cc2ccccc21 [Compound 20, endo-N-(8-(2-morpholinoethyl)-8-azabicyclo[3.2.1]oct-3-yl)-1-isopropyl-2-oxo-1,2-dihydro-3-quinolinecarboxamide]
[1]
  IC50: > 10000 nM
[2]
  IC50: 78.1 ± 14.5 nM
[3]
  EC50: 25.5 nM
[4]
  IC50: 509 nM
[5]
  IC50: > 10000 nM

## CCOCCN1C2CCC1CC(NC(=O)c1cc3ccccc3n(C(C)C)c1=O)C2 (stereo not drawn) [Compound 11, Endo-N-(8-(2-ethoxyethyl)-8-azabicyclo[3.2.1]oct-3-yl)-1-isopropyl-2-oxo-1,2-dihydro-3-quinolinecarboxamide]
[1]
  IC50: > 10000 nM
[2]
  IC50: 68.7 ± 7.32 nM
[3]
  EC50: 18.7 nM
[4]
  IC50: 423 nM
[5]
  IC50: > 10000 nM

## CC(C)n1c(=O)c(C(=O)NC2CC3CCC(C2)N3CCO)cc2ccccc21 (stereo not drawn) [Compound 4, Endo-N-(8-(2-hydroxyethyl)-8-azabicyclo[3.2.1]oct-3-yl)-1-isopropyl-2-oxo-1,2-dihydro-3-quinolinecarboxamide]
[3]
  EC50: 45.9 nM

## CC(=O)CN1[C@@H]2CC[C@H]1C[C@@H](OC(=O)c1cc3ccccc3n(C(C)C)c1=O)C2 [Compound 52, Endo-8-(2-oxopropyl)-8-azabicyclo[3.2.1]oct-3-yl 1-isopropyl-2-oxo-1,2-dihydro-3-quinolinecarboxylate hydrochloride]
[3]
  EC50: 24.6 nM

## CC(C)n1c(=O)c(C(=O)O[C@H]2C[C@H]3CC[C@@H](C2)N3CCS(=O)(=O)c2ccccc2)cc2ccccc21 [Compound 46, Endo-8-(2-(phenylsulfonyl)ethyl)-8-azabicyclo[3.2.1]oct-3-yl 1-isopropyl-2-oxo-1,2-dihydro-3-quinolinecarboxylate]
[3]
  EC50: 46.5 nM

## CC(C)n1c(=O)c(C(=O)O[C@H]2C[C@H]3CC[C@@H](C2)N3CCN2CCOCC2)cc2ccccc21 [Compound 47, Endo-8-(2-morpholinoethyl)-8-azabicyclo[3.2.1]oct-3-yl 1-isopropyl-2-oxo-1,2-dihydro-3-quinoline-carboxylate dihydrochloride]
[3]
  EC50: 30.8 nM

## CC(C)n1c(=O)c(C(=O)NC2CC3CCC(C2)N3CCCCCO)cc2ccccc21 (stereo not drawn) [Compound 7, Endo-N-(8-(5-hydroxypentyl)-8-azabicyclo[3.2.1]oct-3-yl)-1-isopropyl-2-oxo-1,2-dihydro-3-quinolinecarboxamide]
[3]
  EC50: 30.8 nM

## CN1[C@@H]2CC[C@H]1C[C@@H](OC(=O)c1cc3ccccc3[nH]c1=O)C2 [Comparative Compound 3, reference compound]
[3]; twitch response in guinea pig ileum, maximum contraction of sample compound = 100%, read-out: ED50 (concentration enhancing the twitch response by 50%)
  EC50: > 3000 nM

## CC(C)n1c(=O)c(C(=O)O[C@H]2C[C@H]3CC[C@@H](C2)N3CCOc2ccccc2)cc2ccccc21 [Compound 49, Endo-8-(2-phenoxyethyl)-8-azabicyclo[3.2.1]oct-3-yl 1-isopropyl-2-oxo-1,2-dihydro-3-quinolinecarboxylate hydrochloride]
[3]
  EC50: 39 nM

## CC(C)n1c(=O)c(C(=O)OC2CC3CCC(C2)N3CCCO)cc2ccccc21 (stereo not drawn) [Compound 38, Endo-8-(3-hydroxypropyl)-8-azabicyclo[3.2.1]oct-3-yl 1-isopropyl-2-oxo-1,2-dihydro-3-quinolinecarboxylate]
[3]
  EC50: 11.9 nM

## C=CCN1C2CCC1CC(OC(=O)c1cc3ccccc3n(C(C)C)c1=O)C2 (stereo not drawn) [Compound 35, endo-8-(2-propenyl)-8-azabicyclo[3.2.1]oct-3-yl 1-isopropyl-2-oxo-1,2-dihydro-3-quinolinecarboxylate hydrochloride]
[3]
  EC50: 54.4 nM

## CC(C)n1c(=O)c(C(=O)NC2CC3CCC(C2)N3CCCC(=O)O)cc2ccccc21 (stereo not drawn) [Compound 28, Endo-N-(8-(3-carboxypropyl)-8-azabicyclo[3.2.1]oct-3-yl)-1-isopropyl-2-oxo-1,2-dihydro-3-quinolinecarboxamide]
[3]
  EC50: 91.4 nM
